Experiments:
[1] = target: T1, Muscarinic acetylcholine receptor (Rattus norvegicus) (UniProt P08482+P08483+P08485+P08911+P10980)
Description: Ability to displace radioligand [3H]N-methylscopolamine (NMS) at muscarinic acetylcholine receptor from rat cortical homogenate.

[2] = target: T1, Muscarinic acetylcholine receptor (Rattus norvegicus); remark: listed apart in the source
Description: Affinity to displace radioligand [3H]oxotremorine (OXO) at muscarinic acetylcholine receptor from rat cortical homogenate.

[3] = target: T1, Muscarinic acetylcholine receptor (Rattus norvegicus); assay: Ability to displace radioligand [3H]N-methylscopolamine (NMS) at Muscarinic acetylcholine receptor from rat cortical homogenate
[4] = system: Muscarinic acetylcholine receptor (Rattus norvegicus); assay: Ratio of [3H]N-methylscopolamine (NMS) to [3H]oxotremorine (OXO) at Muscarinic acetylcholine receptor from rat cortical homogenate

Ratio [4] | Structure (SMILES) | K app [1] [µM] | K app [2] [µM] | K app [3] [µM]
– | Cc1nsc(C2CCN(C)C2)n1 (stereo not given) | 36 | 0.15 | –
– | COc1nsc([C@H]2CN3CCC2C3)n1 (stereo not given in full) | 1.8 | 0.017 | –
– | Cc1nsc(C2CN3CCC2CC3)n1 (stereo not given) | 0.36 | 0.00078 | –
– | c1nsc([C@@H]2CN3CCC2C3)n1 (stereo not given in full) | – | 0.0056 | 6.4
– | Cc1nsc([C@H]2CN3CCC2C3)n1 (stereo not given in full) | 0.37 | 0.00045 | –
– | COc1nsc(C2CN3CCC2CC3)n1 (stereo not given) | 0.9 | 0.033 | –
– | c1ccc(Cc2nsc(C3CN4CCC3CC4)n2)cc1 (stereo not given) | 0.082 | 0.014 | –
– | COc1nsc([C@@H]2CN3CCC2C3)n1 (stereo not given in full) | 2 | 0.006 | –
– | CN(C)c1nsc([C@@H]2CN3CCC2C3)n1 (stereo not given in full) | 0.84 | 0.062 | –
390 | Cc1noc(C2=CCCN(C)C2)n1 | – | – | –
– | Cc1nsc(C2CCNC2)n1 (stereo not given) | 18 | 0.054 | –
– | CN(C)c1nsc([C@H]2CN3CCC2C3)n1 (stereo not given in full) | 0.99 | 0.098 | –
– | C1CC1c1nsc([C@H]2CN3CCC2C3)n1 (stereo not given in full) | 0.16 | 0.019 | –
– | c1ccc(Cc2nsc([C@H]3CN4CCC3C4)n2)cc1 (stereo not given in full) | 0.54 | 0.061 | –
– | c1nsc([C@H]2CN3CCC2C3)n1 (stereo not given in full) | 1.4 | 0.0013 | –
– | C1CC1c1nsc(C2CN3CCC2CC3)n1 (stereo not given) | 0.023 | 0.0028 | –
– | c1ccc(Cc2nsc([C@@H]3CN4CCC3C4)n2)cc1 (stereo not given in full) | 0.34 | 0.074 | –
– | CSc1nsc(C2CN3CCC2CC3)n1 (stereo not given) | 0.12 | 0.012 | –

Ratio [4] | Structure (SMILES) | K app [1] [µM] | K app [2] [µM] | K app [3] [µM]
– | C1=C(c2ncns2)CNCC1 | 11 | 0.014 | –
– | CC(C)c1nsc([C@H]2CN3CCC2C3)n1 (stereo not given in full) | 0.4 | 0.055 | –
– | C1CC1c1nsc([C@@H]2CN3CCC2C3)n1 (stereo not given in full) | 0.21 | 0.004 | –
– | CC(C)c1nsc([C@@H]2CN3CCC2C3)n1 (stereo not given in full) | 0.29 | 0.041 | –
– | Cc1nsc(C2=CCCNC2)n1 | 0.95 | 0.0021 | –
1200 | CN1CCC=C(c2ncno2)C1 | 8.9 | 0.0077 | –
– | Cc1nsc(C2=CCCN(C)C2)n1 | 1.4 | 0.0089 | –
– | CCc1nsc([C@@H]2CN3CCC2C3)n1 (stereo not given in full) | 0.29 | 0.005 | –
– | CCc1nsc(C2CN3CCC2CC3)n1 (stereo not given) | 0.082 | 0.009 | –
– | COC(=O)C1=CCCNC1 | 20 | 0.017 | –
– | CN(C)c1nsc(C2CN3CCC2CC3)n1 (stereo not given) | 0.14 | 0.023 | –
– | CCc1nsc([C@H]2CN3CCC2C3)n1 (stereo not given in full) | 0.51 | 0.033 | –
– | Cc1nsc([C@@H]2CN3CCC2C3)n1 (stereo not given in full) | 0.62 | 0.00062 | –
– | c1nsc(C2CN3CCC2CC3)n1 (stereo not given) | 3.3 | 0.0077 | –
– | CN1CCC=C(c2ncns2)C1 | 11 | 0.027 | –
– | CC(C)c1nsc(C2CN3CCC2CC3)n1 (stereo not given) | 0.033 | 0.0031 | –
– | OC(c1ccccc1)(c1ccccc1)c1nsc(C2CN3CCC2CC3)n1 (stereo not given) | 0.0002 | 6.8e-05 | –
